Measurements: US9326985B2, “Heteroaryl pyridone and aza-pyridone amide compounds” (Genentech, Inc., priority 2013, dated 2016)

Experiments:
[1] = test system: CD69 by B lymphocytes in human whole blood activated with goat F(ab')2 anti-human IgM; assay: CD69 Whole Blood Assay (CD69 Hu Blood FACS); format: cell-based; conditions: Lymphocyte, CD69 positive of CD20 positive cells
Experimental: CD69 is a type II C-type lectin involved in lymphocyte migration and cytokine secretion.
Human blood is obtained from healthy volunteers, with the following restrictions: 1 week drug-free, non-smokers. Blood (approximately 20 mls to test 8 compounds) is collected by venipuncture into Vacutainer® (Becton, Dickinson and Co.) tubes with sodium heparin.
Solutions of Formula I compounds at 10 mM in DMSO are diluted 1:10 in 100% DMSO, then are diluted by three-fold serial dilutions in 100% DMSO for a ten point dose-response curve. The compounds are further diluted 1:10 in PBS and then an aliquot of 5.5 μl of each compound is added in duplicate to a 2 ml 96-well plate; 5.5 μl of 10% DMSO in PBS is added as control and no-stimulus wells. Human whole blood—HWB (100 μl) is added to each well. After mixing the plates are incubated at 37° C., 5% CO2, 100% humidity for 30 minutes. Goat F(ab′)2 anti-human IgM (10 μl of a 500 μg/ml solution, 50 μg/ml final) is added to each well (except the no-stimulus wells) with mixing and the plates are incubated for an additional 20 hours. At the end of the 20 hour incubation, samples are incubated with fluorescent labeled antibodies for 30 minutes, at 37° C., 5% CO2, 100% humidity. Include induced control, unstained and single stains for compensation adjustments and initial voltage settings. Samples are then lysed with PharM Lyse™ (BD Biosciences Pharmingen) according to the manufacturer's instructions. Samples are then transferred to a 96 well plate suitable to be run on the BD Biosciences HTS 96 well system on the LSRII machine. Data acquired and Mean Fluorescence Intensity values were obtained using BD Biosciences DIVA Software. Results are initially analyzed by FACS analysis software (Flow Jo).

[2] = biological target: T1, full length human wildtype Btk (Homo sapiens, UniProt Q06187); assay: Biochemical Btk Assay (BTK LC3K)
T1 construct: V5 (C); 6xHis (C); made in house; host or cells: Sf9 insect cells (baculovirus, pFastBac)
T1 sequence (Q06187 whole entry): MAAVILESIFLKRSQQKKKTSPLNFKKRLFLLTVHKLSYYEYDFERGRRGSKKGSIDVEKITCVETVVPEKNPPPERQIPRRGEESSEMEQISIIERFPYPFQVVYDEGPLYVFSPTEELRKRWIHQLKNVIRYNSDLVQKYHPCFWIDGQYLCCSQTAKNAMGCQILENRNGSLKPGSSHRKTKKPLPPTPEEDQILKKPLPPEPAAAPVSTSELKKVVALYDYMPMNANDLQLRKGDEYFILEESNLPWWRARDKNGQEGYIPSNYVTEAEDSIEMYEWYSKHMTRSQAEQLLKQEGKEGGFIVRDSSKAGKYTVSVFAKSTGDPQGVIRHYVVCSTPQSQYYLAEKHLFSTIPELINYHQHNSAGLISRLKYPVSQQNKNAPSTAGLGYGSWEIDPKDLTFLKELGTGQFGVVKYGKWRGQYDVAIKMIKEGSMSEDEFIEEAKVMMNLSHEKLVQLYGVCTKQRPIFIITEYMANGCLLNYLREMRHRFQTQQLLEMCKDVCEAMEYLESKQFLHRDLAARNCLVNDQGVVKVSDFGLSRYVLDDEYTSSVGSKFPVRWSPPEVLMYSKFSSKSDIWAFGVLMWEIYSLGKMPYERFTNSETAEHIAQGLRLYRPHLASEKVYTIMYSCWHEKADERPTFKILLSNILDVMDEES
Experimental: A generalized procedure for a standard biochemical Btk, Kinase Assay that can be used to test Formula I compounds is as follows. A master mix minus Btk enzyme is prepared containing 1× Cell Signaling kinase buffer (25 mM Tris-HCl, pH 7.5, 5 mM beta-glycerophosphate, 2 mM dithiothreitol, 0.1 mM Na3VO4, 10 mM MgCl2), 0.5 μM Promega PTK Biotinylated peptide substrate 2, and 0.01% BSA. A master mix plus Btk enzyme is prepared containing 1× Cell Signaling kinase buffer, 0.5 μM (micromolar) PTK Biotinylated peptide substrate 2, 0.01% BSA, and 100 ng/well (0.06 mU/well) Btk enzyme. Btk enzyme is prepared as follows: full length human wildtype Btk (accession number NM-000061) with a C-terminal V5 and 6×His tag was subcloned into pFastBac® vector (Invitrogen/Life Technologies) for making baculovirus carrying this epitope-tagged Btk. […] Passage 3 virus is used to infect Sf9 cells to overexpress the recombinant Btk protein. The Btk protein is then purified to homogeneity using Ni-NTA column. […] A solution of 200 μM ATP is prepared in water and adjusted to pH 7.4 with 1N NaOH. A quantity of 1.25 μL (microliter) of compounds in 5% DMSO is transferred to a 96-well ½ area Costar polystyrene plate. Compounds are tested singly and with an 11-point dose-responsive curve (starting concentration is 10 μM; 1:2 dilution). A quantity of 18.75 μL of master mix minus enzyme (as a negative control) and master mix plus enzyme is transferred to appropriate wells in 96-well ½ area costar polystyrene plate. 5 μL of 200 μM ATP is added to that mixture in the 96-well ½ area Costar polystyrene plate for final ATP concentration of 40 μM. The reaction is allowed to incubate for 1 hour at room temperature. The reaction is stopped with Perkin Elmer 1× detection buffer containing 30 mM EDTA, 20 nM SA-APC, and 1 nM PT66 Ab. […] IC50 values are subsequently calculated. Alternatively, the Lanthascreen assay can be used to evaluate Btk activity through quantification of its phosphorylated peptide product. The FRET (Fluorescence Resonance Energy Transfer) that occurs between the fluorescein on the peptide product and the terbium on the detection antibody decreases with the addition of inhibitors of Btk that reduce the phosphorylation of the peptide. In a final reaction volume of 25 uL, Btk (h) (0.1 ng/25 ul reaction) is incubated with 50 mM Hepes pH 7.5, 10 mM MgCl2, 2 mM MnCl2, 2 mM DTT, 0.2 mM NaVO4, 0.01% BSA, and 0.4 uM fluorescein poly-GAT. […] After incubation for 60 minutes at room temperature, the reaction is stopped by the addition of a final concentration of 2 nM Tb-PY20 detection antibody in 60 mM EDTA for 30 minutes at room temperature.

SMILES | IC50 ([1]; Table 1, anti-IgM stimulation) [nM] | Ki ([2]; Table 1) [nM] | IC50 ([1]; Table 2, anti-IgM stimulation) [nM] | Ki ([2]; Table 2) [nM]
Cn1cc(-c2ccnc(N3CCn4c(cc5c4CC(C)(C)C5)C3=O)c2CO)cc(NC(=O)CN2CCOCC2)c1=O [Compound 105, N-[5-[2-(7,7-dimethyl-4-oxo-1,2,6,8-tetrahydrocyclopenta[3,4]pyrrolo[3,5-b]pyrazin-3-yl)-3-(hydroxymethyl)-4-pyridyl]-1-methyl-2-oxo-3-pyridyl]-2-morpholino-acetamide] | > 5000 | > 55.6 |  | 
Cn1cc(-c2ccnc(N3CCc4cc(OC(F)F)cc(F)c4C3=O)c2CO)cc(NC(=O)[C@@H]2C[C@@H]2F)c1=O [Compound 151, (1S,2S)—N-[5-[2-[6-(difluoromethoxy)-8-fluoro-1-oxo-3,4-dihydroisoquinolin-2-yl]-3-(hydroxymethyl)-4-pyridyl]-1-methyl-2-oxo-3-pyridyl]-2-fluoro-cyclopropanecarboxamide] |  |  | > 5300 | 66
Cc1cc(C(=O)Nc2cc(-c3ccnc(N4CCn5c(cc6c5CC(C)(C)C6)C4=O)c3CO)cn(C)c2=O)n[nH]1 [Compound 111, N-[5-[2-(7,7-dimethyl-4-oxo-1,2,6,8-tetrahydrocyclopenta[3,4]pyrrolo[3,5-b]pyrazin-3-yl)-3-(hydroxymethyl)-4-pyridyl]-1-methyl-2-oxo-3-pyridyl]-5-methyl-1H-pyrazole-3-carboxamide] | > 5400 | > 500 |  | 
Cn1cc(-c2ccnc(N3CCc4c(cc5n4CC(C)(C)C5)C3=O)c2CO)cc(NC(=O)C2CC2)c1=O [Compound 137, N-[5-[2-(7,7-dimethyl-4-oxo-1,2,6,8-tetrahydropyrido[3,4-b]pyrrolizin-3-yl)-3-(hydroxymethyl)-4-pyridyl]-1-methyl-2-oxo-3-pyridyl]cyclopropanecarboxamide] |  |  | 616 | 28.5
Cn1cc(-c2cccc(N3CCn4c(cc5c4CC(C)(C)C5)C3=O)c2CO)cc(NC(=O)C2CC2)c1=O [Compound 129, N-[5-[3-(7,7-dimethyl-4-oxo-1,2,6,8-tetrahydrocyclopenta[3,4]pyrrolo[3,5-b]pyrazin-3-yl)-2-(hydroxymethyl)phenyl]-1-methyl-2-oxo-3-pyridyl]cyclopropanecarboxamide] |  |  | 51.2 | 3.78
Cn1cc(-c2cc(F)cc(N3CCn4c(cc5c4CC(C)(C)C5)C3=O)c2CO)cc(NC(=O)[C@H]2C[C@H]2F)c1=O [Compound 176, (1R,2R)—N-[5-[3-(7,7-dimethyl-4-oxo-1,2,6,8-tetrahydrocyclopenta[3,4]pyrrole[3,5-b]pyrazin-3-yl)-5-fluoro-2-(hydroxymethyl)phenyl]-1-methyl-2-oxo-3-pyridyl]-2-fluoro-cyclopropanecarboxamide] |  |  | 32.7 | 2.1
CCC(=O)Nc1cc(-c2ccnc(-n3ncc4cc(C(C)(C)C)cc(F)c4c3=O)c2CO)cn(C)c1=O [Compound 126, N-[5-[2-(6-tert-butyl-8-fluoro-1-oxo-phthalazin-2-yl)-3-(hydroxymethyl)-4-pyridyl]-1-methyl-2-oxo-3-pyridyl]propanamide] | 527 | 7.01 |  | 
CN1CC[C@@]2(C[C@@H]2C(=O)Nc2cc(-c3ccnc(-n4ncc5cc(C(C)(C)C)cc(F)c5c4=O)c3CO)cn(C)c2=O)C1 (single isomer, unassigned) [Compound 174] |  |  | 1500 | 7.2
Cn1cc(-c2ccnc(N3CCn4c(cc5c4CC(C)(C)C5)C3=O)c2CO)cc(NC(=O)[C@H]2CC23CCC3)c1=O (single isomer, unassigned) [Compound 147] |  |  | 910 | 4.8
Cn1cc(-c2ccnc(-n3ncc4cc(C(C)(C)C)cc(F)c4c3=O)c2CO)cc(NC(=O)[C@@H]2CC23CC3)c1=O (single isomer, unassigned) [Compound 161] |  |  | 338 | 3.7
CN1CC[C@]2(C[C@H]2C(=O)Nc2cc(-c3ccnc(-n4ncc5cc(C(C)(C)C)cc(F)c5c4=O)c3CO)cn(C)c2=O)C1 (single isomer, unassigned) [Compound 169] |  |  | > 4800 | 38.4
Cn1cc(-c2ccnc(N3CCn4c(cc5c4CC(C)(C)C5)C3=O)c2CO)cc(NC(=O)c2cnco2)c1=O [Compound 115, N-[5-[2-(7,7-dimethyl-4-oxo-1,2,6,8-tetrahydrocyclopenta[3,4]pyrrolo[3,5-b]pyrazin-3-yl)-3-(hydroxymethyl)-4-pyridyl]-1-methyl-2-oxo-3-pyridyl]oxazole-5-carboxamide] | > 3200 | > 500 |  | 
Cn1cc(-c2cccc(N3CCc4c(cc5n4CCCC5)C3=O)c2CO)cc(NC(=O)C2CC2)c1=O [Compound 139, N-[5-[2-(hydroxymethyl)-3-(1-oxo-3,4,6,7,8,9-hexahydropyrido[3,4-b]indolizin-2-yl)phenyl]-1-methyl-2-oxo-3-pyridyl]cyclopropanecarboxamide] |  |  | 689 | 7.8
CN1CCC2(CC1)C[C@@H]2C(=O)Nc1cc(-c2ccnc(-n3ncc4cc(C(C)(C)C)cc(F)c4c3=O)c2CO)cn(C)c1=O (single isomer, unassigned) [Compound 166] |  |  | 1600 | 5.4
Cn1cc(-c2ccnc(N3CCc4cc(OC(F)F)cc(F)c4C3=O)c2CO)cc(NC(=O)C2CC2)c1=O [Compound 144, N-[5-[2-[6-(difluoromethoxy)-8-fluoro-1-oxo-3,4-dihydroisoquinolin-2-yl]-3-(hydroxymethyl)-4-pyridyl]-1-methyl-2-oxo-3-pyridyl]cyclopropanecarboxamide] |  |  | > 5400 | 234
Cn1cc(-c2cc(F)cc(N3CCc4c(cc5n4CCCC5)C3=O)c2CO)cc(NC(=O)[C@@H]2C[C@@H]2F)c1=O [Compound 167, (1S,2S)-2-fluoro-N-[5-[5-fluoro-2-(hydroxymethyl)-3-(1-oxo-3,4,6,7,8,9-hexahydropyrido[3,4-b]indolizin-2-yl)phenyl]-1-methyl-2-oxo-3-pyridyl]cyclopropanecarboxamide] |  |  | 245 | 2.4
Cc1cc(C(=O)Nc2cc(-c3ccnc(N4CCn5c(cc6c5CC(C)(C)C6)C4=O)c3CO)cn(C)c2=O)nn1C [Compound 112, N-[5-[2-(7,7-dimethyl-4-oxo-1,2,6,8-tetrahydrocyclopenta[3,4]pyrrolo[3,5-b]pyrazin-3-yl)-3-(hydroxymethyl)-4-pyridyl]-1-methyl-2-oxo-3-pyridyl]-1,5-dimethyl-pyrazole-3-carboxamide] | > 5800 | > 500 |  | 
CC1CC1C(=O)Nc1cc(-c2ccnc(N3CCn4c(cc5c4CC(C)(C)C5)C3=O)c2CO)cn(C)c1=O (stereo not drawn) [Compound 106, N-[5-[2-(7,7-dimethyl-4-oxo-1,2,6,8-tetrahydrocyclopenta[3,4]pyrrolo[3,5-b]pyrazin-3-yl)-3-(hydroxymethyl)-4-pyridyl]-1-methyl-2-oxo-3-pyridyl]-2-methyl-cyclopropanecarboxamide] | 373 | 10.6 |  | 
